These results are taken from patent US8017612B2, “Piperazine compound and use thereof as a HCV polymerase inhibitor” (priority 2006, dated 2011).

Assay [1] deals with T1, HCV polymerase (NS5B) type 1b (Hepatitis C virus genotype 1b, UniProt P26663).
T1 construct: a region encoding NS5B (J Virol 1991 March, 65(3), 1105-13, 544 amino acids after deletion of 47 amino acids on the C-terminal); 6xHis (C); made in house; host or cells: Escherichia coli
The assay is described as follows: Assay of enzyme (HCV polymerase) inhibitory activity, type 1b enzyme. It is filed as biochemical, HCV BK strain (type 1b). As to conditions: HCV polymerase inhibitory activity (IC50), 1b, type 1b enzyme 0.5 μg/ml, 25° C., 60 min. In outline:
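His-tagged, C-terminally truncated NS5B (BK strain, 1b; 0.5 μg/ml) incubated with compound 60 min at 25 °C on 3′UTR-derived substrate RNA (5 μg/ml), 50 μM ATP/GTP/CTP, 2 μM UTP plus [3H]UTP, pH 7.5. Acid-precipitated RNA counted; IC50 from radioactivity with and without compound.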

Assay [2] addresses T2, HCV polymerase (NS5B) type 1a (Hepatitis C virus genotype 1a, UniProt P26664).
T2 construct: made in house; host or cells: Escherichia coli (by the 'similar method' of the 1b enzyme)
The assay is described as follows: Assay of enzyme (HCV polymerase) inhibitory activity, type 1a enzyme. The assay is classed as biochemical, HCV type 1a (cloned from the blood of patients). The note with it: HCV polymerase inhibitory activity (IC50), 1a, type 1a enzyme 1.5 μg/ml, 25° C., 60 min. In short, it runs like this:
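His-tagged NS5B, C-terminal 47 residues deleted, type 1a at 1.5 μg/ml, with 5 μg/ml HCV 3′UTR substrate RNA, 50 μM ATP/GTP/CTP, 2 μM UTP plus [3H]UTP, pH 7.5 Tris, 5 mM MgCl2; 60 min at 25° C. TCA-precipitated RNA counted by scintillation; IC50 from radioactivity with vs. without compound.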

Some results are limits rather than exact numbers.

Take `CCCc1ccc(CNC(=O)[C@H]2CN(c3ccc(C(=O)O)nc3)CCN2S(=O)(=O)c2ccc(OC(F)(F)F)cc2)cc1` [Example 631, 5-[(R)-3-(4-propyl-benzylcarbamoyl)-4-(4-trifluoromethoxy-benzenesulfonyl)-piperazin-1-yl]-pyridine-2-carboxylic acid]: the IC50 in assay [1] and in assay [2] was < 100 nM each time.

As for `CCC(F)(F)c1ccc(CNC(=O)[C@H]2CN(c3cnc4ccccc4n3)CCN2S(=O)(=O)c2ccc(OC(F)(F)F)cc2)cc1` [Example 632, (R)-4-quinoxalin-2-yl-1-(4-trifluoromethoxy-benzenesulfonyl)-piperazine-2-carboxylic acid 4-(1,1-difluoro-propyl)-benzylamide], the concentration for half-maximal inhibition (IC50) in assay [1] and in assay [2] was < 100 nM in each case.

Consider `CCC(F)(F)c1ccc(CNC(=O)[C@H]2CN(c3nc4nc[nH]c(=O)c4s3)CCN2S(=O)(=O)c2ccc(OC(F)(F)F)cc2)cc1` [Example 633, (R)-4-(7-oxo-6,7-dihydro-thiazolo[4,5-d]pyrimidin-2-yl)-1-(4-trifluoromethoxy-benzenesulfonyl)-piperazine-2-carboxylic acid 4-(1,1-difluoro-propyl)-benzylamide], for which the half-maximal inhibitory concentration (IC50) in assay [1] and in assay [2] was < 100 nM each time.

In the case of `CCCn1ccc(CNC(=O)[C@H]2CN(C(C)=O)CCN2S(=O)(=O)c2ccc(OC(F)(F)F)cc2)cc1=O` [Example 634, (R)-4-acetyl-1-(4-trifluoromethoxy-benzenesulfonyl)-piperazine-2-carboxylic acid (2-oxo-1-propyl-1,2-dihydro-pyridin-4-ylmethyl)-amide], the IC50 (in general, the midpoint of a concentration-inhibition curve) is > 1000 nM in assay [1] and 100 to 1000 nM in assay [2].

Take `CCCc1ccc(CNC(=O)[C@H]2CN(C(C)=O)CCN2S(=O)(=O)c2ccc(OC(F)(F)F)cc2)cc1N` [Example 635, (R)-4-acetyl-1-(4-trifluoromethoxy-benzenesulfonyl)-piperazine-2-carboxylic acid 3-amino-4-propyl-benzylamide]: the concentration for half-maximal inhibition (IC50) in assay [1] was 100 to 1000 nM; in assay [2] it was > 1000 nM.

For the compound `COc1cccc(CNC(=O)[C@H]2CN(C(C)=O)CCN2S(=O)(=O)c2ccc(OC(F)(F)F)cc2)c1` [Example 636, (R)-4-acetyl-1-(4-trifluoromethoxy-benzenesulfonyl)-piperazine-2-carboxylic acid 3-methoxy-benzylamide], the half-maximal inhibitory concentration (IC50) in assay [1] and in assay [2] was > 1000 nM in each case.

Regarding `CC(=O)N1CCN(S(=O)(=O)c2ccc(OC(F)(F)F)cc2)[C@@H](C(=O)NCc2cccc(O)c2)C1` [Example 637, (R)-4-acetyl-1-(4-trifluoromethoxy-benzenesulfonyl)-piperazine-2-carboxylic acid 3-hydroxy-benzylamide], the IC50 in assay [1] and in assay [2] was > 1000 nM each time.

As to `CCC(F)(F)c1ccc(CNC(=O)[C@H]2CN(c3cnc(CN)c(N)n3)CCN2S(=O)(=O)c2ccc(OC(F)(F)F)cc2)cc1` [Example 638, (R)-6′-amino-5′-aminomethyl-4-(4-trifluoromethoxy-benzenesulfonyl)-3,4,5,6-tetrahydro-2H-[1,2′]bipyrazinyl-3-carboxylic acid 4-(1,1-difluoro-propyl)-benzylamide], the IC50 in assay [1] and in assay [2] was < 100 nM each time.

Consider `O=C(NCc1nc2ccccc2o1)[C@H]1CN(c2cnc3cncnc3n2)CCN1S(=O)(=O)c1ccc(OC(F)(F)F)cc1` [Example 639, (R)-4-pteridin-7-yl-1-(4-trifluoromethoxy-benzenesulfonyl)-piperazine-2-carboxylic acid (benzoxazol-2-ylmethyl)-amide], for which the results for the IC50 in assay [1] and in assay [2] were 100 to 1000 nM and > 1000 nM, respectively.

`CCC(F)(F)c1ccc(CNC(=O)[C@H]2CN(c3nc4nn[nH]c(=O)c4s3)CCN2S(=O)(=O)c2ccc(OC(F)(F)F)cc2)cc1` [Example 640, (R)-4-(4-oxo-3,4-dihydro-thiazolo[4,5-d][1,2,3]triazin-6-yl)-1-(4-trifluoromethoxy-benzenesulfonyl)-piperazine-2-carboxylic acid 4-(1,1-difluoro-propyl)-benzylamide]: the IC50 in assay [1] and in assay [2] was < 100 nM each time.

In the case of `CC(=O)N1CCN(S(=O)(=O)c2ccc(OC(F)(F)F)cc2)[C@@H](C(=O)NCc2ccc(C(C)(C)C#N)cc2)C1` [Example 641, (R)-4-acetyl-1-(4-trifluoromethoxy-benzenesulfonyl)-piperazine-2-carboxylic acid 4-(cyano-dimethyl-methyl)-benzylamide], the IC50 in assay [1] and in assay [2] was 100 to 1000 nM in each case.

On to `CC(=O)N1CCN(S(=O)(=O)c2ccc(OC(F)(F)F)cc2)[C@@H](C(=O)NCc2ccccc2-c2ccccc2)C1` [Example 642, (R)-4-acetyl-1-(4-trifluoromethoxy-benzenesulfonyl)-piperazine-2-carboxylic acid (biphenyl-2-ylmethyl)-amide], for which the 50% inhibitory concentration (IC50) in assay [1] and in assay [2] was > 1000 nM throughout.

As to `CC(=O)N1CCN(S(=O)(=O)c2ccc(OC(F)(F)F)cc2)[C@@H](C(=O)NCC2CCCCC2)C1` [Example 643, (R)-4-acetyl-1-(4-trifluoromethoxy-benzenesulfonyl)-piperazine-2-carboxylic acid cyclohexylmethyl-amide], the IC50 in assay [1] and in assay [2] was > 1000 nM throughout.

On to `CC(=O)N1CCN(S(=O)(=O)c2ccc(OC(F)(F)F)cc2)[C@@H](C(=O)NCC2CCN(C(=O)OC(C)(C)C)CC2)C1` [Example 644, 4-({[(R)-4-acetyl-1-(4-trifluoromethoxy-benzenesulfonyl)-piperazine-2-carbonyl]-amino}-methyl)-piperidine-1-carboxylic acid tert-butyl ester], for which the half-maximal inhibitory concentration (IC50) in assay [1] and in assay [2] was > 1000 nM throughout.

In the case of `COc1ccc(CNC(=O)[C@H]2CN(C(C)=O)CCN2S(=O)(=O)c2ccc(OC(F)(F)F)cc2)cc1O` [Example 645, (R)-4-acetyl-1-(4-trifluoromethoxy-benzenesulfonyl)-piperazine-2-carboxylic acid 3-hydroxy-4-methoxy-benzylamide], the half-inhibitory concentration (IC50) in assay [1] and in assay [2] was > 1000 nM throughout.

Consider `CCCc1ccc(CNC(=O)[C@H]2CN(C(C)=O)CCN2S(=O)(=O)c2ccc(OC(F)(F)F)cc2)c(=O)[nH]1` [Example 646, (R)-4-acetyl-1-(4-trifluoromethoxy-benzenesulfonyl)-piperazine-2-carboxylic acid (2-oxo-6-propyl-1,2-dihydro-pyridin-3-ylmethyl)-amide], for which the 50% inhibitory concentration (IC50) in assay [1] and in assay [2] was > 1000 nM in each case.

Consider `CCC(F)(F)c1ccc(CNC(=O)[C@H]2CN(c3nc4nsnc4nc3O)CCN2S(=O)(=O)c2ccc(OC(F)(F)F)cc2)cc1` [Example 647, (R)-4-(6-hydroxy-[1,2,5]thiadiazolo[3,4-b]pyrazin-5-yl)-1-(4-trifluoromethoxy-benzenesulfonyl)-piperazine-2-carboxylic acid 4-(1,1-difluoro-propyl)-benzylamide], for which the IC50 in assay [1] was 100 to 1000 nM; in assay [2] it was > 1000 nM.

Take `CCC(F)(F)c1ccc(CNC(=O)[C@H]2CN(c3cnc4cnccc4n3)CCN2S(=O)(=O)c2ccc(OC(F)(F)F)cc2)cc1` [Example 648, (R)-4-pyrido[3,4-b]pyrazin-2-yl-1-(4-trifluoromethoxy-benzenesulfonyl)-piperazine-2-carboxylic acid 4-(1,1-difluoro-propyl)-benzylamide]: the IC50 in assay [1] and in assay [2] was < 100 nM throughout.
